Experimental data: patent US20250359548A1, “METHODS OF IMPROVING STRESS TOLERANCE, GROWTH AND YIELD IN PLANTS” (Valent BioSciences LLC, priority 2020, published 2025)

Columns and labels:
Assay type in all cases: in vivo
Apogee wheat [1] = assay: Example 1: grain yield in Apogee wheat under water stress (greenhouse pots, spray at Feekes 11.0); settings: drought stress
Method: 42 pots of Apogee wheat were grown in a greenhouse under ideal growing conditions. Specifically, wheat was planted in ProMix® growth media and grown for about-seven weeks in a growth cabinet at 24/18° C. day/night temperature under a 16/8 hour light/dark photoperiod. Next, spray applications of 0.025% v/v Latron B-1956® in water, 30 ppm ABA, 30 ppm 6BA, 10 ppm CPPU, a mixture of 30 ppm ABA and 30 ppm 6BA and a mixture of 30 ppm ABA and 10 ppm CPPU (n=7) were made using a tank sprayer at Feekes stage 11.0. Plants were then grown with no additional water for next 3-5 days until drought stress conditions and water-deficit stress-related phenotypes were apparent. Specifically, drought stress conditions are determined as when pots have lost 60-70% of stored soil water, as determined by determined gravimetrically by weighing pots, through evapotranspiration and water-deficit stress-related phenotypes include wilting and leaf-rolling. Plants were re-watered to bring soil moisture to saturation and subsequently grown under optimal conditions until physiological maturity. Plants were then destructively harvested and measured for spike weight, grain weight, yield per spike and harvest index. Harvest index is calculated by dividing pounds of grain by the total pounds of above ground biomass.
(§1) To determine if the mixtures provided unexpected results, the observed combined efficacy (“OCE”) was divided by the expected combined efficacy (“ECE”) to give an OCE/ECE ratio wherein the expected ECE is calculated by a variation of the Abbott method:
(§2) [formula] • wherein ECE is the expected combined efficacy and in which X is the control efficacy and A and B are the efficacy provided by the single active ingredients. If the ratio between the OCE of the mixture and the ECE of the mixture is greater than 1, then greater than expected interactions are present in the mixture. (Gisi, The American Phytopathological Society, 86:11, 1273-1279, 1996).

Apogee wheat [2] = assay: Example 2: grain yield in Apogee wheat under water stress; settings: 30 ppm spray; drought stress
Method: as §1, §2
Thirty-two pots of Apogee wheat were grown in a greenhouse under ideal growing conditions. Specifically, wheat was planted in ProMix® growth media and grown for about seven weeks in a growth cabinet at 24/18° C. day/night temperature under a 16/8 hour light/dark photoperiod. Next, spray applications of 0.025% v/v Latron B-1956® in water, 30 ppm ABA, 30 ppm 6BA, and a mixture of 30 ppm ABA and 30 ppm 6BA (n=8) were made using a tank sprayer at Feekes stage 11.0. Plants were then grown with no additional water for the next 3-5 days until drought stress conditions and water-deficit stress-related phenotypes were apparent. Plants were re-watered to bring soil moisture to saturation and grown under optimal conditions until physiological maturity. Plants were then destructively harvested and measured for shoot weight, spike weight, grain yield, yield per spike and total above ground biomass.

Apogee wheat [3] = assay: Example 3: grain yield in Apogee wheat under well-watered conditions, two sprays
Method: as §1, §2
32 pots of Apogee wheat were grown in a greenhouse under ideal growing conditions. Specifically, wheat was planted in ProMix® growth media and grown for about seven weeks in a growth cabinet at 24/18° C. day/night temperature under a 16/8 hour light/dark photoperiod. Next, spray applications of 0.025% v/v Latron B-1956® in water, 30 ppm ABA, 10 ppm CPPU, and a mixture of 30 ppm ABA and 10 ppm CPPU (n=8) were made using a tank sprayer at Feekes stage 11.0. A second chemical spray application was made seven days after first spray. Plants were then grown under ideal conditions for an additional 5-6 weeks until they reached physiological maturity. Plants were then destructively harvested and measured for spike weight, grain yield, yield per spike and total above ground biomass.

Apogee wheat [4] = assay: Example 4: grain yield in Apogee wheat under water stress, dose combinations; settings: drought stress
Method: as §1, §2
72 pots of Apogee wheat were grown in a greenhouse under ideal growing conditions. Specifically, wheat was planted in ProMix® growth media and grown for about seven weeks in a growth cabinet at 24/18° C. day/night temperature under a 16/8 hour light/dark photoperiod. Next, spray applications of 0.025% v/v Latron B-1956® in water, 10 ppm ABA, 30 ppm ABA, 5 ppm CPPU, 10 ppm CPPU, a mixture of 10 ppm ABA and 5 ppm CPPU, a mixture of 30 ppm ABA and 5 ppm CPPU, a mixture of 10 ppm ABA and 10 ppm CPPU and a mixture of 30 ppm ABA and 10 ppm CPPU (n=8) were made using a tank sprayer at Feekes stage 11.0. Plants were then grown with no additional water for next 3-5 until drought stress conditions and water-deficit stress related phenotype was apparent. Plants were re-watered to bring soil moisture to saturation and grown under optimal conditions until physiological maturity. Plants were then destructively harvested and measured for spike weight, grain yield, yield per spike and total above ground biomass.

rice [5] = assay: Example 5: grain yield in rice (spray at R6)
Method: as §1, §2
32 pots of rice were grown in a greenhouse under ideal growing conditions. Specifically, rice was planted in growth media comprising sand and Pro-Mix® BX and grown for about 3-4 weeks in a growth cabinet at 24/18° C. day/night temperature under a 18/6 hour light/dark photoperiod. Next, spray applications of 0.025% v/v Latron B-1956® in water, 30 ppm ABA, 10 ppm CPPU, and a mixture of 30 ppm ABA and 10 ppm CPPU (n=8) were made using a tank sprayer at early grain filling stage (growth stage R6). Plants were then grown under ideal conditions for an additional 5-7 weeks. Plants were then destructively harvested and measured for yield of top six panicles, yield from other panicles (not top six panicles), yield of all panicles, yield per panicle and yield per top six panicles.

rice [6] = assay: Example 6: grain yield in rice (spray at R5 to R6); settings: 30 ppm spray at R5 to R6
Method: as §1, §2
48 pots of rice were grown in a greenhouse under ideal growing conditions. Specifically, rice was planted in growth media comprising sand and Pro-Mix® BX and grown for about 3-4 weeks in a growth cabinet at 24/18° C. day/night temperature under a 18/6 hour light/dark photoperiod. Next, spray applications of 0.025% v/v Latron B-1956® in water, 30 ppm ABA, 30 ppm 6BA, 45 ppm 6BA, a mixture of 30 ppm ABA and 30 ppm 6BA, and a mixture of 30 ppm ABA and 45 ppm 6BA (n=8) were made using a tank sprayer at early grain filling stage (growth stage R5 to R6). Plants were then grown under ideal conditions for an additional 5-7 weeks. Plants were then destructively harvested and measured for yield of top six panicles, yield from other panicles (not top six panicles), yield of all panicles, yield per panicle and yield per top six panicles.

Corn = assay: Example 7: grain yield in field corn, Seymour IL 2020
Method: Corn was grown in the field in Seymour, IL in 2020. Spray applications of water, 2 g/HA ABA, 6 g/HA ABA and a mixture of 2 g/HA ABA and 2 g/HA 6BA (n=8) were made using a tank sprayer at the blister to milk stage (growth stage R2-R3). Plants were then grown until mature. Plants were then destructively harvested and measured for grain yield.

Soybean = assay: Example 8: grain yield in field soybean, Seymour IL 2020
Method: Soybean was grown in the field in Seymour, IL in 2020. Spray applications of water, 2 g/HA ABA, 6 g/HA ABA and a mixture of 2 g/HA ABA and 2 g/HA 6BA (n=8) were made using a tank sprayer at the beginning of seeding (growth stage R4 to R5). Plants were then grown until mature. Plants were then destructively harvested and measured for grain yield.

Barley = assay: Example 9: grain yield in field barley, Argentina 2020
Method: Barley was grown in the field in Pieres, Buenos Aires Province, Argentina from Jun. 15 to Dec. 30, 2020. 2 g/HA ABA, 6 g/HA ABA and mixtures of 2 g/HA ABA and 2 g/HA 6BA and 4 g/HA ABA and 2 g/HA 6BA (n=8) were made using a tank sprayer at the beginning of milk grains (growth stage Zadoks 7.2). Plants were then grown until mature. Plants were then destructively harvested and measured for grain yield.

Compound: (S)-abscisic acid [ABA]
- Grain Yield (Apogee wheat [1]; 30 ppm spray): 10.24 grams
- Harvest Index (Apogee wheat [1]; 30 ppm spray): 0.55
- Spike Weight (Apogee wheat [1]; 30 ppm spray): 14.06 grams
- Yield/Spike (Apogee wheat [1]; 30 ppm spray): 1.40 grams
- Grain Yield (Apogee wheat [2]): 12.12 grams
- Shoot Weight (Apogee wheat [2]): 5.04 grams
- Spike Weight (Apogee wheat [2]): 15.66 grams
- Total Above Ground Biomass (Apogee wheat [2]): 20.70 grams
- Yield/Spike (Apogee wheat [2]): 1.33 grams
- Grain Yield (Apogee wheat [3]; 30 ppm): 8.49 grams
- Spike Weight (Apogee wheat [3]; 30 ppm): 11.60 grams
- Total Above Ground Biomass (Apogee wheat [3]; 30 ppm): 15.38 grams
- Yield/Spike (Apogee wheat [3]; 30 ppm): 1.04 grams
- Grain Yield (Apogee wheat [4]; 10 ppm spray): 6.95 grams
- Spike Weight (Apogee wheat [4]; 10 ppm spray): 9.22 grams
- Total Above Ground Biomass (Apogee wheat [4]; 10 ppm spray): 12.11 grams
- Yield/Spike (Apogee wheat [4]; 10 ppm spray): 1.08 grams
- Grain Yield (Apogee wheat [4]; 30 ppm spray): 6.72 grams
- Spike Weight (Apogee wheat [4]; 30 ppm spray): 8.90 grams
- Total Above Ground Biomass (Apogee wheat [4]; 30 ppm spray): 11.47 grams
- Yield/Spike (Apogee wheat [4]; 30 ppm spray): 1.06 grams
- Yield of All (rice [5]; 30 ppm spray at R6): 28.47 grams
- Yield of Others (rice [5]; 30 ppm spray at R6): 12.72 grams
- Yield of Top 6 (rice [5]; 30 ppm spray at R6): 15.75 grams
- Yield per Panicle (rice [5]; 30 ppm spray at R6): 2.34 grams
- Yield per Top 6 (rice [5]; 30 ppm spray at R6): 2.63 grams
- Yield of All (rice [6]): 23.70 grams
- Yield of Others (rice [6]): 5.22 grams
- Yield of Top 6 (rice [6]): 19.14 grams
- Yield per Panicle (rice [6]): 2.95 grams
- Yield per Top 6 (rice [6]): 3.19 grams
- Grain Yield (Corn; 2 g/HA spray at R2-R3): 225 bushels/acre
- Grain Yield (Corn; 6 g/HA spray at R2-R3): 234 bushels/acre
- Grain Yield (Soybean; 2 g/HA spray at R4 to R5): 96.57 bushels/acre
- Grain Yield (Soybean; 6 g/HA spray at R4 to R5): 93.80 bushels/acre
- Grain Yield (Barley; 2 g/HA spray at Zadoks 7.2): 5319
- Grain Yield (Barley; 6 g/HA spray at Zadoks 7.2): 5114

Compound: O=C(Nc1ccccc1)Nc1ccnc(Cl)c1 [CPPU, n-(2-chloro-4-pyridyl)-n′-phenylurea]
- Grain Yield (Apogee wheat [1]; 10 ppm spray): 9.69 grams
- Harvest Index (Apogee wheat [1]; 10 ppm spray): 0.56
- Spike Weight (Apogee wheat [1]; 10 ppm spray): 12.99 grams
- Yield/Spike (Apogee wheat [1]; 10 ppm spray): 1.34 grams
- Grain Yield (Apogee wheat [3]; 10 ppm): 8.28 grams
- Spike Weight (Apogee wheat [3]; 10 ppm): 11.86 grams
- Total Above Ground Biomass (Apogee wheat [3]; 10 ppm): 15.98 grams
- Yield/Spike (Apogee wheat [3]; 10 ppm): 0.95 grams
- Grain Yield (Apogee wheat [4]; 5 ppm spray): 6.20 grams
- Spike Weight (Apogee wheat [4]; 5 ppm spray): 8.57 grams
- Total Above Ground Biomass (Apogee wheat [4]; 5 ppm spray): 11.34 grams
- Yield/Spike (Apogee wheat [4]; 5 ppm spray): 0.98 grams
- Grain Yield (Apogee wheat [4]; 10 ppm spray): 6.32 grams
- Spike Weight (Apogee wheat [4]; 10 ppm spray): 8.12 grams
- Total Above Ground Biomass (Apogee wheat [4]; 10 ppm spray): 10.94 grams
- Yield/Spike (Apogee wheat [4]; 10 ppm spray): 1.00 grams
- Yield of All (rice [5]; 10 ppm spray at R6): 26.33 grams
- Yield of Others (rice [5]; 10 ppm spray at R6): 11.16 grams
- Yield of Top 6 (rice [5]; 10 ppm spray at R6): 15.17 grams
- Yield per Panicle (rice [5]; 10 ppm spray at R6): 2.22 grams
- Yield per Top 6 (rice [5]; 10 ppm spray at R6): 2.53 grams
